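48-hour exposure; five concentrations; linearly interpolated endpoints. Here, GI50 denotes the concentration required for 50% inhibition of growth. At the TGI there is no net growth.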

Common to all, as to assay: NCI-60 cell line screen, 48 h
Assay [1] concerns CCRF-CEM leukemia.
Assay [2] concerns NCI-H522 lung.
For assay [3], the system named is HL-60(TB) leukemia.
Assay [4] concerns M14 melanoma.
Assay [5] has as its system OVCAR-8 ovarian.
In assay [6] the test system is NCI-H23 lung.
The test system of assay [7] is U251 CNS.
For assay [8], the system named is KM12 colon.
Assay [9] relates to OVCAR-5 ovarian.
The test system of assay [10] is MCF7 breast.

`O=C(CN(Cc1ccccc1)Cc1ccccc1)N1CCc2c([nH]c3ccccc23)C1c1cccnc1` (stereo not drawn): the TGI in assay [1] was 41.4 µM; in assay [2], 73.6 µM; in [3], 4.17 µM; in [4], 14.2 µM; in [5], over 100 µM; in assay [6], 79.3 µM. For the same compound, the TGI was 26.7 µM in assay [7], 26.3 µM in assay [8] and 34.7 µM in assay [9].
As to `O=C[C@]12CC=C3OC4OC5(CCCCC5)OC4[C@H]3[C@H]1C(=O)C=CC2=O` (stereo partly drawn), the TGI in assay [1] came to 9.3 µM; in [2] it was 22.1 µM; in assay [3], 2.78 µM; in assay [4] it was 38.7 µM; in assay [5] it was 34.6 µM; in assay [7], 64.6 µM. In addition, the TGI in assay [8] and in assay [9] was over 100 µM in each case.
`N.N.N.N.N.N#Cc1nn[n-]n1.[Cl-].[Co+3]`: the GI50 in assay [1], in [3], in [4], in [5], in assay [6] and in [7] was over 100 µM throughout. Also, the GI50 in assay [8] and in assay [9] was over 100 µM throughout. Also, the TGI in assay [1], in [3], in assay [4], in [5], in assay [6] and in assay [7] was over 100 µM each time. For the same compound, the TGI in assay [8] and in assay [9] was over 100 µM each time.
Regarding `COc1cccc(CCNC(=O)CC(c2ccccc2)(c2ccccc2)c2ccccc2)c1`, the GI50 in [10] is 21.5 µM; in [1], 8.16 µM; in [3], 17.5 µM; in [5], 4.98 µM; in assay [7], 4.86 µM; in [8] it was 4.75 µM. The GI50 in assay [9] is 11.7 µM. The TGI was over 100 µM in [10]; over 100 µM in assay [1]; over 100 µM in assay [3]; 47.7 µM in assay [5]; 55.6 µM in assay [7]; over 100 µM in assay [8]. For the same compound, the TGI in assay [9] was over 100 µM.
Regarding `COc1ccc(CN2C(=O)/C(=C\C(=O)c3ccc(OCCN4CCCC4)cc3)c3ccccc32)cc1`, the GI50 was 3.34 µM in [1]; 2.61 µM in assay [3]; 2.25 µM in assay [4]; 2.66 µM in assay [5]; 10.9 µM in assay [6]; 11.1 µM in assay [8]. The GI50 in [9] is 1.78 µM. The TGI amounted to 32.2 µM in assay [1]; 6.7 µM in assay [3]; 5.34 µM in assay [4]; 5.78 µM in [5]; 36.5 µM in assay [6]; 34.7 µM in assay [8]. The compound also had a TGI in assay [9] of 4.76 µM.
For `C/C=C(\C)c1cc(=O)c2c(C)cc3c(c2o1)C(OC)(OC(C)=O)c1c(O)c(C2CC(C)(N(C)C)C(OC(C)=O)C(C)O2)cc(C2CC(N(C)C)C(OC(C)=O)C(C)O2)c1C3=O` (stereo not drawn), the TGI in assay [10] is over 100 µM; in [1], 10.1 µM; in [6] it was 2.42 µM; in assay [7], over 20.4 µM; in [8], 8.24 µM; in assay [9], 9.75 µM.
As for `CC[O-].CC[O-].COc1ccc(C(=O)[CH-]C(C)=O)cc1OC.COc1ccc(C(=O)[CH-]C(C)=O)cc1OC.[Ti+4]`, the GI50 was 27.8 µM in assay [1]; 43.3 µM in assay [3]; 83.8 µM in assay [4]; 81.9 µM in assay [5]; over 100 µM in assay [6]; 53.8 µM in [9]. The TGI in assay [1], in assay [3], in [4], in assay [5], in assay [6] and in assay [9] was over 100 µM in each case.
With `O=CC1CCC=CC1NC(=O)OCc1ccccc1` (stereo not drawn), the TGI was over 100 µM in assay [1]; over 100 µM in assay [2]; 46.5 µM in [3]; over 100 µM in [4]; 52.3 µM in [5]; over 100 µM in assay [6]. In addition, the TGI in assay [7], in assay [8] and in assay [9] was over 100 µM each time.
For `Cc1ccc2nc(Sc3c([N+](=O)[O-])ncn3C)[nH]c2c1`, the TGI in [4] is 92.5 µM; in assay [5], 41 µM; in assay [6], 50.5 µM; in assay [7] it was over 100 µM; in assay [8], over 100 µM; in assay [9], over 100 µM.
Turning to `N#CC(C#N)=Cc1ccc(C(O)P(=O)(O)O)cc1` (stereo not drawn), the TGI in [1], in assay [2], in assay [3], in [4], in assay [5] and in [6] was over 100 µM throughout. For the same compound, the TGI in [7], in [8] and in assay [9] was over 100 µM each time.
Take `O=C1c2cccc([N+](=O)[O-])c2C(=O)c2nccnc21`: the TGI in assay [1] turned out to be 5.65 µM; in assay [2], 2.75 µM; in assay [3], 4.81 µM; in [4] it was 2.96 µM; in assay [5], 7.09 µM; in assay [6], 2.98 µM. Further, the TGI in [7] was 4.34 µM; in assay [9], 9.6 µM.
In the case of `COC(=O)C(=O)C(C#N)c1cccc(Cl)c1` (stereo not drawn), the TGI in assay [1], in assay [2], in [3], in assay [4], in assay [5] and in assay [6] was over 100 µM throughout. The TGI in [7], in assay [8] and in [9] was over 100 µM each time.
Take `CC12CC/C(=N/NC(N)=O)C3C1CCCC32`: the TGI in assay [1], in assay [2], in assay [3], in assay [4], in assay [5] and in assay [6] was over 100 µM in each case. In addition, the TGI in [7] and in assay [8] was over 100 µM each time.

(Values after PubChem BioAssay (NCI).)
